Assays:
[1] = Partition coefficient (logP); format: physicochemical; conditions: octanol/water
[2] = target: Mu-type opioid receptor (Rattus norvegicus) (UniProt P33535); conditions: Brain; Membrane
[3] = target: Mu-type opioid receptor (Rattus norvegicus) (UniProt P33535); conditions: Brain; Membrane; remark: listed apart in the source

Sequence of Mu-type opioid receptor (Rattus norvegicus) (P33535 whole entry): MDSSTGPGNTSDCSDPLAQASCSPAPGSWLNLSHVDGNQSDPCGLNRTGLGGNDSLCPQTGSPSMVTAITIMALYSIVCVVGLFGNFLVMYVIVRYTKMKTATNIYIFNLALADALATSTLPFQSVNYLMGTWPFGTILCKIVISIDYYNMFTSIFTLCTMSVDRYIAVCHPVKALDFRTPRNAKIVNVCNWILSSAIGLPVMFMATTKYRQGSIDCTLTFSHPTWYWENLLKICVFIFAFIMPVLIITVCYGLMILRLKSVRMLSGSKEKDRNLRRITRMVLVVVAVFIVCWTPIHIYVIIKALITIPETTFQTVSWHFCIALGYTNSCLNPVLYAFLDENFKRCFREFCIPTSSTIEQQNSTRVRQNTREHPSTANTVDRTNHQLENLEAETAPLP

SMILES | logP ([1]; read-out: logP) | further results
C[C@H]1[C@H]2Cc3ccc(O)cc3[C@]1(C)CCN2CC1CC1 [CYCLAZOCINE] | – | logP [1]: 0.97
COc1ccc2c3c1O[C@H]1[C@@H](O)C=C[C@H]4[C@@H](C2)N(C)CC[C@@]341 [CODEINE] | 0.25 | Kp [2]: 11.4; KT [3]: 13.3
CN1CC[C@]23CCCC[C@H]2[C@H]1Cc1ccc(O)cc13 [LEVORPHANOL] | 1.03 | Kp [2]: 15.6; KT [3]: 20.8
CN1CCC23c4c5ccc(O)c4OC2C(=O)CCC3(O)C1C5 (configuration not stated) | -0.42 | –
CN1CCC23c4c5cccc4OC2C(=O)CCC3C1C5 (configuration not stated) | 0.4 | –
C=CCN1CCC23c4c5ccc(O)c4OC2C(O)C=CC3C1C5 (configuration not stated) | 1.22 | –
CN1CCC23c4c5cccc4OC2CCCC3C1C5 (configuration not stated) | 1.35 | –
CN1CCC23c4c5ccc(O)c4OC2C(O)CCC3C1C5 (configuration not stated) | -0.51 | –
CN1CC[C@]23c4c5ccc(O)c4O[C@H]2[C@@H](O)C=C[C@H]3[C@H]1C5 | – | Kp [2]: 12.6; KT [3]: 18.8
C=CCN1CCC23c4c5cccc4OC2C(O)CCC3C1C5 (configuration not stated) | 0.87 | –
CC1C2Cc3ccc(O)cc3C1(C)CCN2Cc1ccoc1 (stereo in doubt; form 1) | 2.25 | –
CC1C2Cc3ccc(O)cc3C1(C)CCN2Cc1ccco1 (stereo in doubt; form 2) | 2.68 | –
CC1C2Cc3ccc(O)cc3C1(C)CCN2Cc1ccoc1 (stereo in doubt; form 2) | – | logP [1]: 2
CC1C2Cc3ccc(O)cc3C1(C)CCN2Cc1ccco1 (stereo in doubt; form 1) | – | logP [1]: 2.49
C=CCN1CCC23CCCCC2C1Cc1ccc(O)cc13 (configuration not stated) | 2.14 | Kp [2]: 20.8; KT [3]: 21.6
C=CCN1CCC2(C)c3cc(O)ccc3CC1C2C (stereo in doubt; form 1) | – | logP [1]: 1.58
CN1CCC23c4c5cccc4OC2C(O)C=CC3C1C5 (configuration not stated) | 0.3 | –
C=CCN1CCC2(C)c3cc(O)ccc3CC1C2C (stereo in doubt; form 2) | 1.73 | –
CN1CCC23c4c5cccc4OC2C(=O)CCC3(O)C1C5 (configuration not stated) | -0.23 | –
C[C@H]1[C@@H]2Cc3ccc(O)cc3[C@]1(C)CCN2C [METAZOCINE] | 0.47 | –

From ChEMBL document CHEMBL1124051 (J Med Chem, 1988)
